Assay: activity of the starting insulins in I.U./mg
Conditions: starting insulin; crystallized insulin calculated on dry substance

| Substance | activity [I.U./mg] |
| --- | --- |
| crystallized insulin: pure crystallized complete insulin used as starting material | ≥ 25 |
| des-phenyl-alanine^B1 insulin [des-Phe^B1 insulin] | 25 |
